Data as given in patent US20100016352A1, “COMPOUNDS AND METHODS FOR TREATING ESTROGEN RECEPTOR-RELATED DISEASES” (priority 2008, published 2010).

How the values were obtained:
[1] = test system: MCF7 cells; assay: Cell apoptosis assay in ER-positive breast cancer MCF7 cells (cell number after treatment); type: cell-based, human; details: 10 days
Description: Cell Apoptosis Assay in ER-Positive Breast Cancer MCF7 Cells
MCF7 cell line is a breast cancer cell line that strongly expresses ER-α66, ER-α46 and ER-α36 (Relevance of breast cancer cell lines as models for breast tumours: an update. Marc Lacroix, Guy Leclercq, Breast Cancer Research and Treatment (2004) 83, 249-289; Wang et al., Proc. Natl. Acad. Sci. U.S.A. 103:9063-9068 (2006)). MCF7 cells obtained from ATCC are maintained in DMEM/F12 medium (Invitrogen) supplemented with 10% fetal calf serum at 37° C. in a 5% CO2 atmosphere. The MCF7 cells are treated with the test compounds 6, 8, 14, 22, 27, 29, 30, 31, 36 and 38 at concentrations from 1 μM to 25 μM to test the effect of these compounds on MCF7 cell growth for 10 days. The control assay is conducted with MCF7 cells under the same assay conditions except that no test compound is added. Treated cells are examined under a Nikon TS100 inverted microscope and photographed for morphological changes.

[2] = test system: Human Breast Cancer BCAP-37 Cells xenografts; assay: In vivo efficacy in inhibiting growth of human breast cancer BCAP-37 cells xenografts in nude mice; details: Mus musculus, Bcap37, po, 360 h; female nude mice, BCAP-37 xenograft, 35 mg/kg fed once every day for 15 days, tumor weight vs olive oil negative control; read-out: Inhibition rate of tumor growth (%)
Description: The In Vivo Efficacy in Inhibiting Growth of Human Breast Cancer BCAP-37 Cells Xenografts in Nude Mice Model
Nude mice with breast cancer xenografts are treated with the test compounds 5, 6, 8, 14, 22, 36 and 38 to test their effect on inhibiting tumor growth. Tumor tissues are taken from nude mice bearing BCAP-37 breast cancer and cut into small pieces. Several pieces of the tumor tissues are implanted into the armpit under the right front limb of female nude mice. After the implantation, the mice are fed with E2β solution once every day at the dosage of 7 μg per mouse for 6 days to stimulate tumor growth in the receiving mice. Starting on the seventh day, the mice are fed with the test compounds at the dosage of 35 mg/kg. Tamoxifen is used as a positive control. Olive oil is used as a negative control. The test compounds are prepared as an olive oil solution (20 mg/mL). The mice are given the test compounds and Tamoxifen at the dosage of 35 mg/kg or olive oil once every day for 15 days. Then the mice are sacrificed and the tumor tissues are dissected from the mice and weighed. The tumor growth inhibition rate is a percentage calculated using the formula: tumor growth inhibition rate=(average weight of the tumor in the negative control−average weight of the tumor treated with test compound)/average weight of the tumor in the negative control.

[3] = MCF-7, tested compound concentration 1 μM
[4] = MCF-7, tested compound concentration 5 μM
[5] = MCF-7, tested compound concentration 10 μM
[6] = MCF-7, tested compound concentration 15 μM
[7] = MCF-7, tested compound concentration 25 μM

SMILES	Cell Number (×10^4) [1, 3]	Cell Number (×10^4) [1, 4]	Cell Number (×10^4) [1, 5]	Cell Number (×10^4) [1, 6]	Cell Number (×10^4) [1, 7]	inhibition in vivo at 35 mg/kg [2] [%]
CC(C)=CCc1c(O)cc(O)c2c(=O)cc(-c3ccc(Cl)cc3)oc12 [Compound 22, 2-(4-chlorophenyl)-5,7-dihydroxy-8-(3-methylbut-2-enyl)-4H-chromen-4-one]	39.0 ×10^4	21.6 ×10^4	15.6 ×10^4	4.2 ×10^4	0.6 ×10^4	66
COc1ccc(-c2oc3c(CCC(C)(C)N)c(O)cc(O)c3c(=O)c2O)cc1 [Compound 8, 8-(3-amino-3-methylbutyl)-3,5,7-trihydroxy-2-(4-methoxyphenyl)-4H-chromen-4-one]	28.75 ×10^4	15.35 ×10^4	10.1 ×10^4	6.45 ×10^4	0.25 ×10^4	62
CC/C(=C(\c1ccccc1)c1ccc(OCCN(C)C)cc1)c1ccccc1 [Tamoxifen, reference compound]						40 to 50
CC(C)=CCc1c(O)ccc2c(=O)cc(-c3ccc(C(F)(F)F)cc3)oc12 [Compound 29, 2-(4-(trifluoromethyl)phenyl)-7-hydroxy-8-(3-methylbut-2-enyl)-4H-chromen-4-one]	27.9 ×10^4	30.1 ×10^4	24.3 ×10^4	23.4 ×10^4	12.3 ×10^4	
COc1c(-c2ccc(Cl)cc2)oc2c(CC=C(C)C)c(O)cc(O)c2c1=O [Compound 14, 2-(4-chlorophenyl)-5,7-dihydroxy-3-methoxy-8-(3-methylbut-2-enyl)-4H-chromen-4-one]	30.05 ×10^4	14.54 ×10^4	2.51 ×10^4	0 ×10^4	0 ×10^4	37
CC(C)=CCc1c(O)ccc2c(=O)cc(-c3ccncc3)oc12 [Compound 36, 7-hydroxy-8-(3-methylbut-2-enyl)-2-(pyridin-4-yl)-4H-chromen-4-one]	25.6 ×10^4	14.8 ×10^4	10.65 ×10^4	3.65 ×10^4	1.4 ×10^4	56
COc1ccc(-c2cc(=O)c3c(O)cc(O)c(CC=C(C)C)c3o2)cc1Cl [Compound 27, 2-(3-chloro-4-methoxyphenyl)-5,7-dihydroxy-8-(3-methylbut-2-enyl)-4H-chromen-4-one]	59.4 ×10^4	45.2 ×10^4	5.4 ×10^4	1.05 ×10^4	0 ×10^4	
COc1ccc(-c2oc3c(CC=C(C)C)c(O)cc(O)c3c(=O)c2OC)cc1OC [Compound 5, 5,7-dihydroxy-3-methoxy-2-(3,4-dimethoxyphenyl)-8-(3-methylbut-2-enyl)-4H-chromen-4-one]						26
CC(C)=CCc1c(O)ccc2c(=O)cc(-c3ccc(C)cc3)oc12 [Compound 30, 7-hydroxy-8-(3-methylbut-2-enyl)-2-(4-methylphenyl)-4H-chromen-4-one]	21.1 ×10^4	10.8 ×10^4	5.8 ×10^4	3.6 ×10^4	1.5 ×10^4	
CC(C)=CCc1c(O)ccc2c(=O)cc(-c3ccc(F)cc3)oc12 [Compound 31, 2-(4-fluorophenyl)-7-hydroxy-8-(3-methylbut-2-enyl)-4H-chromen-4-one]	24.0 ×10^4	25.5 ×10^4	27.25 ×10^4	9.6 ×10^4	7.5 ×10^4	
CC(C)=CCc1c(O)ccc2c(=O)cc(-c3cccnc3)oc12 [Compound 38, 7-hydroxy-8-(3-methylbut-2-enyl)-2-(pyridin-3-yl)-4H-chromen-4-one]	27.8 ×10^4	19.66 ×10^4	13.8 ×10^4	10.1 ×10^4	2.6 ×10^4	24
COc1ccc(-c2oc3c(CCC(C)(C)O)c(O)cc(O)c3c(=O)c2OC)cc1OC [Compound 6, 5,7-dihydroxy-8-(3-hydroxy-3-methylbutyl)-3-methoxy-2-(3,4-dimethoxyphenyl)-4H-chromen-4-one]	18.35 ×10^4	8.97 ×10^4	3.95 ×10^4	3.9 ×10^4	3.87 ×10^4	44
